Source: paper PMC12888861, “Antibacterial activity of enmetazobactam against Acinetobacter spp.: a molecular dissection of mechanism of action and resistance determinants” (Antimicrobial Agents and Chemotherapy, 2025)
Where two headings read alike, the source gives them in different places.

Tested on: A. non-baumannii isolates (n = 87)
Assay: MIC, broth microdilution (EUCAST), A. non-baumannii isolates
Assay type: cell-based, Acinetobacter spp. (non-baumannii)
Conditions: for MIC: in combinations ETZ fixed at 8 mg/L, read-out: MIC
Excerpt: The bacterial strains used in this study comprised 208 clinical isolates from the Spanish National Acinetobacter spp. 2020 Multicenter Collection, which was previously characterized in detail by our research group, including whole-genome sequencing, phylogenetics studies, clonal dynamics, and resistance mechanisms ([2], [29]). Additionally, a collection of A. baumannii ATCC 17978 transformants coding the blaOXA-23, blaOXA-24/40, blaOXA-51, blaOXA-58, blaOXA-143, and blaOXA-201 genes, previously constructed and described by our group ([30]), was used to determine the activity of enmetazobactam against strains carrying the main CHDLs of A. baumannii.
The antimicrobial susceptibility of the 208 Acinetobacter spp. isolates was assessed using the broth microdilution method, as described in the European Committee on Antimicrobial Susceptibility Testing (EUCAST) v.15 guidelines (http://www.eucast.org/clinical_breakpoints). […] MICs for enmetazobactam alone were assessed as well. […] Subsequently, MIC testing was also conducted with a collection of A. baumannii ATCC 17978 transformants expressing clinically relevant OXA-like carbapenemase genes.
The A. baumannii ATCC 19606 strain was used as the reference strain in all susceptibility experiments, in duplicate assays. Antibiotics were purchased from Sigma-Aldrich, except enmetazobactam and durlobactam, which were obtained from Advanz Pharma and MedChemExpress, respectively.

[1] = Acinetobacter, A. non-baumannii isolates (n=87), ETZ fixed 8 mg/L in combinations

For `C[C@@H](O)[C@H]1C(=O)N2C(C(=O)O)=C(SCCN=CN)C[C@H]12` [imipenem], the MIC (Acinetobacter pittii, isolate NO-Ab90, Acinetobacter pittii) was no more than 0.06 µg/mL, the MIC (Acinetobacter pittii, isolate NO-Ab97, Acinetobacter pittii) was no more than 0.06 µg/mL and the MIC (Acinetobacter pittii, isolate NO-Ab105, Acinetobacter pittii) was 0.12 µg/mL. The MIC (Acinetobacter pittii, isolate NO-Ab106, Acinetobacter pittii) was no more than 0.06 µg/mL, the MIC (Acinetobacter pittii, isolate NO-Ab107, Acinetobacter pittii) was no more than 0.06 µg/mL and the MIC (Acinetobacter pittii, isolate NO-Ab111, Acinetobacter pittii) was 0.12 µg/mL. For the same compound, the MIC (Acinetobacter pittii, isolate NO-Ab113, Acinetobacter pittii) was 0.25 µg/mL, the MIC (Acinetobacter pittii, isolate NO-Ab118, Acinetobacter pittii) was 0.12 µg/mL and the MIC (Acinetobacter pittii, isolate NO-Ab135, Acinetobacter pittii) was 0.12 µg/mL. For the same compound, the MIC (Acinetobacter pittii, isolate NO-Ab145, Acinetobacter pittii) was 0.12 µg/mL, the MIC (Acinetobacter pittii, isolate NO-Ab151, Acinetobacter pittii) was 0.25 µg/mL and the MIC (Acinetobacter pittii, isolate NO-Ab154, Acinetobacter pittii) was 0.25 µg/mL. The MIC (Acinetobacter pittii, isolate NO-Ab157, Acinetobacter pittii) was 0.25 µg/mL, the MIC (Acinetobacter pittii, isolate NO-Ab162, Acinetobacter pittii) was 0.12 µg/mL and the MIC (Acinetobacter pittii, isolate NO-Ab164, Acinetobacter pittii) was no more than 0.06 µg/mL. For the same compound, the MIC (Acinetobacter pittii, isolate NO-Ab178, Acinetobacter pittii) was 0.12 µg/mL, the MIC (Acinetobacter pittii, isolate NO-Ab197, Acinetobacter pittii) was 0.12 µg/mL and the MIC (Acinetobacter proteolyticus, isolate NO-Ab99, Acinetobacter proteolyticus) was 0.25 µg/mL. The MIC (Acinetobacter proteolyticus, isolate NO-Ab102, Acinetobacter proteolyticus) was 0.25 µg/mL, the MIC (Acinetobacter proteolyticus, isolate NO-Ab210, Acinetobacter proteolyticus) was no more than 0.06 µg/mL and the MIC (Acinetobacter radioresistens, isolate NO-Ab175, Acinetobacter radioresistens) was 0.25 µg/mL. The MIC (Acinetobacter radioresistens, isolate NO-Ab215, Acinetobacter radioresistens) was 0.12 µg/mL, the MIC (Acinetobacter ursingii, isolate NO-Ab3, Acinetobacter ursingii) was no more than 0.06 µg/mL and the MIC (Acinetobacter ursingii, isolate NO-Ab64, Acinetobacter ursingii) was no more than 0.06 µg/mL. For the same compound, the MIC (Acinetobacter ursingii, isolate NO-Ab87, Acinetobacter ursingii) was no more than 0.06 µg/mL, the MIC (Acinetobacter ursingii, isolate NO-Ab103, Acinetobacter ursingii) was no more than 0.06 µg/mL and the MIC (Acinetobacter ursingii, isolate NO-Ab119, Acinetobacter ursingii) was 0.25 µg/mL. The MIC (Acinetobacter ursingii, isolate NO-Ab120, Acinetobacter ursingii) was no more than 0.06 µg/mL, the MIC (Acinetobacter ursingii, isolate NO-Ab123, Acinetobacter ursingii) was no more than 0.06 µg/mL and the MIC (Acinetobacter ursingii, isolate NO-Ab126, Acinetobacter ursingii) was 0.12 µg/mL. It also gave an MIC (Acinetobacter ursingii, isolate NO-Ab147, Acinetobacter ursingii) of 0.25 µg/mL, an MIC (Acinetobacter ursingii, isolate NO-Ab155, Acinetobacter ursingii) of 0.25 µg/mL and an MIC (Acinetobacter ursingii, isolate NO-Ab165, Acinetobacter ursingii) of 0.12 µg/mL. The MIC (Acinetobacter ursingii, isolate NO-Ab166, Acinetobacter ursingii) was no more than 0.06 µg/mL, the MIC (Acinetobacter ursingii, isolate NO-Ab214, Acinetobacter ursingii) was no more than 0.06 µg/mL and the MIC (Acinetobacter ursingii, isolate NO-Ab221, Acinetobacter ursingii) was no more than 0.06 µg/mL. The MIC (Acinetobacter ursingii, isolate NO-Ab222, Acinetobacter ursingii) was no more than 0.06 µg/mL, the MIC (Acinetobacter, isolate NO-Ab146, Acinetobacter iwoffii) was 0.25 µg/mL and the MIC (Acinetobacter, isolate NO-Ab159, Acinetobacter iwoffii) was no more than 0.06 µg/mL. For the same compound, the MIC50 [1] was 0.12 µg/mL, the MIC90 [1] was 0.25 µg/mL and the “MIC distribution 0.25” value (cumulative share of A. non-baumannii isolates (n=87) at MIC 0.25 mg/L, ETZ fixed 8 mg/L in combinations) was 96.6. For the same compound, the “MIC distribution 0.5” value (cumulative share of A. non-baumannii isolates (n=87) at MIC 0.5 mg/L, ETZ fixed 8 mg/L in combinations) was 97.7, the “MIC distribution 1” value (cumulative share of A. non-baumannii isolates (n=87) at MIC 1 mg/L, ETZ fixed 8 mg/L in combinations) was 97.7 and the “MIC distribution 2” value (cumulative share of A. non-baumannii isolates (n=87) at MIC 2 mg/L, ETZ fixed 8 mg/L in combinations) was 97.7. The “MIC distribution 4” value (cumulative share of A. non-baumannii isolates (n=87) at MIC 4 mg/L, ETZ fixed 8 mg/L in combinations) was 97.7, the “MIC distribution 8” value (cumulative share of A. non-baumannii isolates (n=87) at MIC 8 mg/L, ETZ fixed 8 mg/L in combinations) was 97.7 and the “MIC distribution 16” value (cumulative share of A. non-baumannii isolates (n=87) at MIC 16 mg/L, ETZ fixed 8 mg/L in combinations) was 97.7. The “MIC distribution 32” value (cumulative share of A. non-baumannii isolates (n=87) at MIC 32 mg/L, ETZ fixed 8 mg/L in combinations) was 100 and the “MIC distribution ≤0.06” value (cumulative share of A. non-baumannii isolates (n=87) at MIC ≤0.06 mg/L, ETZ fixed 8 mg/L in combinations) was 32.2.
